Test results: US7902354B2, “Lapachone compounds and methods of use thereof” (ArQule, Inc., priority 2006, dated 2011)

Experiments:
Type in all cases: cell-based
[1] = tested on: A549 human lung carcinoma cells; assay: MTS cell viability assay, A549 human lung carcinoma cells; details: A549, 4 h compound incubation, MTS, read-out: IC50 Values, Cancerous Cells, Lung A549
[2] = tested on: DLD-1 human colon carcinoma cells; assay: MTS cell viability assay, DLD-1 human colon carcinoma cells; details: DLD-1, 4 h compound incubation, MTS, read-out: IC50 Values, Cancerous Cells, Colon DLD-1
[3] = tested on: DU-145 human prostate carcinoma cells; assay: MTS cell viability assay, DU-145 human prostate carcinoma cells; details: DU-145, 4 h compound incubation, MTS, read-out: IC50 Values, Cancerous Cells, Prostate DU-145
[4] = tested on: K-562 human leukemia cells; assay: MTS cell viability assay, K-562 human leukemia cells; details: K562, K-562, 4 h compound incubation, MTS, read-out: IC50 Values, Cancerous Cells, Leukemia K-562
[5] = tested on: PACA-2 human pancreatic carcinoma cells; assay: MTS cell viability assay, PACA-2 human pancreatic carcinoma cells; details: PACA-2, 4 h compound incubation, MTS, read-out: IC50 Values, Cancerous Cells, Pancreas PACA-2
[6] = tested on: NCM-460 normal colon epithelial cells; assay: MTS cell viability assay, NCM-460 normal colon epithelial cells; details: for IC50: Homo sapiens, NCM460, NCM-460, 4 h compound incubation, MTS, read-out: IC50 Values, Normal Cells, Colon NCM-460; for Fold Selectivity (NCM-460/DLD1): ratio of IC50 NCM-460 / DLD1

Structure (SMILES) | IC50 [1] [µM] | IC50 [2] [µM] | IC50 [3] [µM] | IC50 [4] [µM] | IC50 [5] [µM] | IC50 [6] [µM] | Fold Selectivity (NCM-460/DLD1) [6]
C=CCN1CCC2(CC1)CSC1=C(O2)c2ccccc2C(=O)C1=O [Compound 131, 1′-allylspiro[naphtho[1,2-b][1,4]oxathiine-2,4′-piperidine]-5,6-dione] | 6.9 | 1.46 | 2.7 | 1.39 | 1.44 | 2.95 | 2.0
O=C1C(=O)c2ccccc2C2=C1SCC1(CCN(C(=O)c3cccc(C(F)(F)F)c3)CC1)O2 [Compound 54, 1′-[3-(trifluoromethyl)benzoyl]spiro[naphtho 1,2-b][1,4]oxathiine-2,4′-piperidine-5,6-dione] | 7.57 | 1.49 | 1.91 | 1.74 | 1.33 | 11 | 7.4
O=C1C(=O)c2ccccc2C2=C1SCC1(CCN(S(=O)(=O)c3ccc(Cl)c(Cl)c3)CC1)O2 [Compound 76, 1′-[(3,4-dichlorophenyl)sulfonyl]spiro[naphtho[1,2-b][1,4]oxathiine-2,4′-piperidine]-5,6-dione] | > 100 | 27.1 | 28 | > 33.3 | 14.3 | 100 | 3.7
O=C1C(=O)c2ccccc2C2=C1SCC1(CCN(C(=O)c3cccnc3)CC1)O2 [Compound 59, 1′-(pyridin-3-ylcarbonyl)spiro[naphtho[1,2-b][1,4]oxathiine-2,4′-piperidine]-5,6-dione] | 16.8 | 4.1 | 10.4 | 4.24 | 4.24 | 10.7 | 2.6
O=C1C(=O)c2ccccc2C2=C1SCC1(CCN(C(=O)C3CCCCC3C(=O)O)CC1)O2 (stereo not shown) [Compound 231, 2-[(5,6-dioxo-5,6-dihydro-1′H-spiro[naphtho[1.2-b][1,4]oxathiine-2,4′-piperidin]-1′-yl)carbonyl]cyclohexanecarboxylic acid] | 27.9 | 9.27 | 12 | 10.6 | 4.84 | 12.3 | 1.3
COc1cccc(CN2CCC3(CC2)CSC2=C(O3)c3ccccc3C(=O)C2=O)c1 [Compound 121, 1′-(3-methoxybenzyl)spiro[naphtho[1,2-b][1,4]oxathiine-2,4′-piperidine]5,6-dione] | 9.42 | 3.98 | 5.48 | 4.03 | 3.71 | 11 | 2.8
CC(C)COC(=O)N1CCC2(CC1)CSC1=C(O2)c2ccccc2C(=O)C1=O [Compound 93, isobutyl 5,6-dioxo-5,6-dihydro-1′H-spiro[naphtho[1,2-b][1,4]oxathiine-2,4′-piperidine]-1′-carboxylate] | 4.87 | 1.68 | 4.25 | 2.46 | 3.55 | 10.8 | 6.4
O=C1C(=O)c2ccccc2C2=C1SCC1(CCN(C(=O)CSc3ccccc3)CC1)O2 [Compound 48, 1′-[(phenylthio)acetyl]spiro[naphtho[1,2-b][1,4]oxathiine-2,4′-piperidine]-5,6-dione] | 11.8 | 1.55 | 4.12 | 1.5 | 2.37 | 5.7 | 3.7
O=C1C(=O)c2ccccc2C2=C1SCC1(CCN(C(=O)c3ccco3)CC1)O2 [Compound 39, 1′-(2-furoyl)spiro[naphtho[1,2-b][1,4]oxathiine-2,4′-piperidine]-5,6-dione] | 7.69 | 1.45 | 3.86 | 1.87 | 1.52 | 6.35 | 4.4
O=C1C(=O)c2ccccc2C2=C1SCC1(CCN(C(=O)Nc3ccc(F)cc3)CC1)O2 [Compound 85, N-(4-fluorophenyl)-5,6-dioxo-5,6-dihydro-1′H-spiro[naphtho[1,2-b][1,4]oxathiine-2,4′-piperidine]-1′-carboxamide] | 6.38 | 1.29 | 1.88 | 1.32 | 1.14 | 3.31 | 2.6
O=C1C(=O)c2ccccc2C2=C1SCC1(CCN(S(=O)(=O)c3cccc(Cl)c3)CC1)O2 [Compound 82, 1′-[(3-chlorophenyl)sulfonyl]spiro[naphtho[1,2-b][1,4]oxathiine-2,4′-piperidine]-5,6-dione] | 15.3 | 8.88 | 7.88 | 10 | 4.59 | 21.1 | 2.4
O=C1C(=O)c2ccccc2C2=C1SCC1(CCN(C3CCCCC3)CC1)O2 [Compound 258, 1′-cyclohexylspiro[naphtho[1,2-b][1,4]oxathiine-2,4′-piperidine]-5,6-dione] | 5.42 | 1.49 | 3.9 | 1.49 | 1.99 | 5.91 | 4.0
O=C1C(=O)c2ccccc2C2=C1SCC1(CCN(CC(O)COc3ccc(F)cc3)CC1)O2 (stereo not shown) [Compound 164, 1′-[3-(4-fluorophenoxy)-2-hydroxypropyl]spiro[naphtho[1,2-b][1,4]oxathiine-2,4′-piperidine]-5,6-dione] | 9.02 | 1.52 | 2.88 | 3.12 | 1.42 | 9.74 | 6.4
O=C1C(=O)c2ccccc2C2=C1SCC1(CCN(C(=O)c3ccoc3)CC1)O2 [Compound 43, 1′-(3-furoyl)spiro[naphtho[1,2-b][1,4]oxathiine-2,4′-piperidine]-5,6-dione] | 9.96 | 2.26 | 4.12 | 2.77 | 2.14 | 9.44 | 4.2
CC(c1ccccc1)N1CCC2(CC1)CSC1=C(O2)c2ccccc2C(=O)C1=O (stereo not shown) [Compound 137, 1′-(1-phenylethyl)spiro[naphtho[12-b][1,4]oxathiine-2,4′-piperidine]-5,6-dione] | 8.27 | 4.08 | 4.32 | 4.25 | 4.12 | 10 | 2.5
O=C1C(=O)c2ccccc2C2=C1SCC1(CCN(C(=O)Oc3ccccc3)CC1)O2 [Compound 92, phenyl 5,6-dioxo-5,6-dihydro-1′H-spiro[naphtho[1,2-b][1,4]oxathiine-2,4′-piperidine]-1′-carboxylate] | 31 | 4.01 | 9.11 | 4.54 | 4.29 | 13.1 | 3.3
O=C(O)CSCC(=O)N1CCC2(CC1)CSC1=C(O2)c2ccccc2C(=O)C1=O [Compound 234, {[2-(5,6-dioxo-5,6-dihydro-1′H-spiro[naphtho[1,2-b][1,4]oxathiine-2,4′-piperidine]-1′-yl)-2-oxoethyl]thio}acetic acid] | > 100 | > 100 | > 100 | > 100 | 55.6 | > 100 | –
